Experimental data taken from patent publication US8703199B2, “Pharmaceutical compositions of adsorbates of amorphous drug” (Bend Research, Inc., priority 2001, dated 2014).

How the values were obtained:
Type in all cases: physicochemical
[1] = in vitro dissolution test, microcentrifuge method, Drug 3 in 0.5 wt % MFD solution
Experimental: The adsorbate of Example 17 was evaluated in an in vitro dissolution test as in Example 2 using 1.44 mg of the adsorbate of […], or 0.36 mg of crystalline Drug 3 (Control 3) in a microcentrifuge tube with 1.8 ml of 0.5 wt % MFD solution. Samples were analyzed by HPLC at a UV absorbance of 254 nm using a Phenomex ODS 20 column and a mobile phase consisting of 60% 0.02 M KH2PO4(pH 3.0)/40% acetonitrile.
(§1) The drug/substrate adsorbate of Example 35 was evaluated in an in vitro dissolution test using the procedure described in Example 18, except that 1.44 mg of the adsorbate, or 0.36 mg of Control 3B, was added to a microcentrifuge tube containing 1.8 mL 0.5 wt % MFD solution at pH 6.5.
as §1, with “drug/concentration-enhancing polymer/substrate” for “drug/substrate”, “37” for “35”, “1.96” for “1.44”, “0.39” for “0.36”, “3A,” for “3B,”

[2] = nuclear magnetic resonance (NMR) test of dissolved Drug 2 in deuterated MFD solution; settings: after equilibration for 3 days
Experimental: The adsorbate of Example 9 and the crystalline drug of Control 2A were evaluated using a nuclear magnetic resonance (NMR) test. In this test, 0.690 mg of the adsorbate of Example 9, or 0.174 mg of Control 2, was added to a microcentrifuge tube. The tubes were placed in a 37° C. temperature-controlled chamber, and 1.7 mL for Example 9, or 1.8 mL for Control 2A, of 2 wt % deuterated MFD solution (d-MFD) at pH 6.5, 37° C., and 290 mOsm/kg was added. The samples were quickly mixed using a vortex mixer for 60 seconds. […] The supernatant was then carefully transferred to an 8 mm glass NMR tube for Example 9. […]
Fluorine spectra of the sample were recorded at 282.327 MHz on a Varian Gemini 2000, 300 MHz NMR equipped with a Nalorac 8 mm indirect detection probe. […] Drug resonances were integrated relative to the internal standard peak and the drug concentration determined. The given experiment time was calculated from the time the solvent was added to the solid sample until half of the time the spectrum had been acquired by the NMR. For example, when the spectra has been recorded for 2 hours after the sample was equilibrated for 30 minutes the time listed for the NMR result is 90 minutes. […]
The adsorbates of Example 13 and Example 14 were evaluated using the nuclear magnetic resonance (NMR) test described in Example 11. […]

[3] = in vitro dissolution test, microcentrifuge method, Drug 2 in 0.5 wt % MFD solution; settings: for AUC / Drug 2 Concentration: 0.5 wt % MFD solution pH 6.5
Experimental: The adsorbate of Example 6 and the crystalline drug of Control 2A were evaluated in an in vitro dissolution test using a microcentrifuge method as in Example 2. In this test, 9 mg of the adsorbate of Example 6, or 1.8 mg of Control 2A, was added to a microcentrifuge tube. The tubes were placed in a 37° C. temperature-controlled chamber, and 1.8 mL of 0.5 wt % MFD solution at pH 6.5 and 290 mOsm/kg was added. The samples were quickly mixed using a vortex mixer for about 60 seconds. The samples were centrifuged at 13,000 G at 37° C. for 1 minute. The resulting supernatant solution was then sampled and diluted 1:5 (by volume) with methanol. Diluted samples were analyzed by HPLC at a UV absorbance of 256 nm using a Waters Symmetry C8 column and a mobile phase consisting of 15% (0.2% H3PO4)/85% methanol. The contents of the tubes were mixed on the vortex mixer and allowed to stand undisturbed at 37° C. until the next sample was taken. Samples were collected at 4, 10, 20, 40, 90, and 1200 minutes. […]

[4] = accelerated storage test of physical stability (PXRD)
Experimental: The stability of Example 1 adsorbate was evaluated in an accelerated storage test. The adsorbate was stored under elevated temperature and humidity conditions to increase the rate of physical changes occurring in the material in order to simulate a longer storage interval in a typical storage environment. Samples of the adsorbate and Control 1B were stored at 40° C./75% relative humidity (RH). Samples were analyzed using a powder X-ray diffraction (PXRD) technique using a Bruker AXS D8 Advance diffractometer as follows. The X-ray tube (KCu, 1.54184 Å) was operated at a voltage of 45 kV and a current of 40 mA with the beam focused through a Göbel mirror and a series of slits into a line focus. Diffractograms were typically collected over the 2□ range of 4° to 40° with a step size of 0.02°/step. Data were collected for a minimum time of 2.4 sec/step. Scans were obtained by holding the tube at a constant angle (to keep the illuminated area of the sample constant) and scanning a scintillation-counter detector fitted with a thin film collimator through 2□. […]
Samples of the adsorbate of Example 9 were assessed for physical stability by storing them for 12 weeks at 50° C./75% RH. […]
The physical stability of the adsorbate of Example 23 was evaluated by storing samples of the adsorbate at 40° C. and 75% relative humidity and periodically withdrawing samples and analyzing them by PXRD.

[5] = in vitro dissolution test, microcentrifuge method, Drug 2 in PBS (alone or with Pluronic F-127); parameters: AUC / AUC90: concentration or dose not given beside the values; settings: for AUC / Drug 2 Concentration: PBS pH 6.5
Experimental: (§2) The tubes were placed in a 37° C. temperature-controlled chamber, and 1.8 mL phosphate buffered saline (PBS) at pH 6.5 and 290 mOsm/kg was added. The solutions were quickly mixed using a vortex mixer for about 60 seconds, and then centrifuged at 13,000 G at 37° C. for […]. The resulting supernatant solution was then sampled and diluted 1:5 (by volume) with methanol. Diluted samples were analyzed by high-performance liquid chromatography (HPLC) at a UV absorbance of 245 nm using a Phenomenex Kromasil C4 column and a mobile phase of 45% (0.2% H3PO4)/55% acetonitrile. After sampling, the contents of the tubes were mixed on the vortex mixer and allowed to stand undisturbed at 37° C. until the next sample was taken. Samples were collected at 4, 10, 20, 40, 90, and 1200 minutes.
This example illustrates that combining concentration-enhancing polymer with a drug/substrate adsorbate results in improved concentration enhancement. The adsorbate of Example 9, consisting of 25 wt % Drug 2 and 75 wt % CAB-O-SIL M-5P, was evaluated in an in vitro dissolution test using the procedure describe in Example 2, except that 7.2 mg of the adsorbate, or 1.8 mg of Control 2B, was added to a microcentrifuge tube containing 1.8 mL PBS alone, or 1.8 mL PBS with 3.6 mg of the concentration-enhancing polymer polyoxyethylene-polyoxypropylene block copolymer (Pluronic® F-127, available from BASF Corp.) HPLC analysis of Drug 2 was performed as described in Example 7. […]

[6] = in vitro dissolution test, microcentrifuge method, Drug 4 in PBS; parameters: AUC / AUC90: concentration or dose not given beside the values
Experimental: as §2, with “minutes. […]” for “minutes.”
The adsorbate of Example 23 was evaluated in the in vitro dissolution test described in Example 22. In this test, 45 mg of the adsorbate of Example 23 was added to the microcentrifuge tubes used in the test. Samples for this test were collected at 4, 10, 20, 40, 90, and 1200 minutes.

[7] = 1200 min, 0.5 wt % MFD solution

For `O=C1Cc2cc(CCN3CCN(c4nsc5ccccc45)CC3)c(Cl)cc2N1` [Control 3A], the AUC ([1]; 0 min, 0.5 wt % MFD solution) was 0 µg·min/mL, the “Drug 3 Concentration” value ([1]; 0 min, 0.5 wt % MFD solution, 0.36 mg crystalline drug added) was 0 μgA/mL and the “Drug 3 Concentration” value ([1]; 1200 min, 0.5 wt % MFD solution, 0.36 mg crystalline drug added) was 5 μgA/mL. The “Drug 3 Concentration” value ([1]; 1200 min, 0.5 wt % MFD solution, 0.39 mg crystalline drug added, pH 6.5) was 9 μgA/mL, the C1200 ([1]; Drug 3, 0.5 wt % MFD solution) was 9 μgA/mL and the “Cmax,90” value ([1]; Drug 3, 0.5 wt % MFD solution) was 3 µg/mL.

With `CCOC(=O)N1c2ccc(C(F)(F)F)cc2[C@@H](N(Cc2cc(C(F)(F)F)cc(C(F)(F)F)c2)C(=O)OC)C[C@H]1CC` [Control 2A, [2R,4S] 4-[(3,5-bis-trifluoromethyl-benzyl)-methoxycarbonyl-amino]-2-ethyl-6-trifluoromethyl-3,4-dihydro-2H-quinoline-1-carboxylic acid ethyl ester] the “dissolved Drug 2 concentration” value [2] was 13 μgA/mL, the AUC ([3]; 0 min) was 0 µg·min/mL and the “Drug 2 Concentration” value ([3]; 0 min) was 0 µg/mL. The AUC ([3]; 4 min) was 6 µg·min/mL, the “Drug 2 Concentration” value ([3]; 4 min) was 3 µg/mL and the AUC ([3]; 10 min) was 21 µg·min/mL. For the same molecule, the “Drug 2 Concentration” value ([3]; 10 min) was 2 µg/mL, the AUC ([3]; 20 min) was 71 µg·min/mL and the “Drug 2 Concentration” value ([3]; 20 min) was 8 µg/mL. The AUC ([3]; 40 min) was 190 µg·min/mL, the “Drug 2 Concentration” value ([3]; 40 min) was 4 µg/mL and the AUC ([3]; 90 min) was 570 µg·min/mL. The “Drug 2 Concentration” value ([3]; 90 min) was 11 µg/mL, the AUC ([3]; 1200 min) was 14,700 min * μg/mL and the “Drug 2 Concentration” value ([3]; 1200 min) was 15 µg/mL. The AUC90 ([3]; Drug 2, 0.5 wt % MFD solution) was 570 µg·min/mL and the “Cmax,90” value ([3]; Drug 2, 0.5 wt % MFD solution) was 11 µg/mL.

In the case of `COc1ccc2c(c1)c(CC(=O)O)c(C)n2C(=O)c1ccc(Cl)cc1` [amorphous control, Indomethacin], the crystallization rate ([4]; 4 days at 40° C. and 75% relative humidity) is reported as 20 %/day and the “crystallinity of the drug” value ([4]; after 4 days of storage at 40° C. and 75% relative humidity, PXRD) is reported as “more than 80%”.

With `CCOC(=O)N1c2ccc(C(F)(F)F)cc2[C@@H](N(Cc2cc(C(F)(F)F)cc(C(F)(F)F)c2)C(=O)OC)C[C@H]1CC` [Control 2B, [2R,4S] 4-[(3,5-bis-trifluoromethyl-benzyl)-methoxycarbonyl-amino]-2-ethyl-6-trifluoromethyl-3,4-dihydro-2H-quinoline-1-carboxylic acid ethyl ester] the AUC ([5]; 0 min) was 0 µg·min/mL, the “Drug 2 Concentration” value ([5]; 0 min) was <1 μgA/mL and the AUC ([5]; 4 min) was <2 µg·min/mL. The “Drug 2 Concentration” value ([5]; 4 min) was <1 μgA/mL, the AUC ([5]; 10 min) was <8 µg·min/mL and the “Drug 2 Concentration” value ([5]; 10 min) was <1 μgA/mL. For the same molecule, the AUC ([5]; 20 min) was <18 µg·min/mL, the “Drug 2 Concentration” value ([5]; 20 min) was <1 μgA/mL and the AUC ([5]; 40 min) was <38 µg·min/mL. For the same molecule, the “Drug 2 Concentration” value ([5]; 40 min) was <1 μgA/mL, the AUC ([5]; 90 min) was <88 µg·min/mL and the “Drug 2 Concentration” value ([5]; 90 min) was <1 μgA/mL. The AUC ([5]; 1200 min) was <1,200 min * μg/mL, the “Drug 2 Concentration” value ([5]; 1200 min) was <1 μgA/mL and the AUC90 ([5]; Drug 2, PBS) was <88 µg·min/mL. The C1200 ([5]; Drug 2, PBS) was <1 μgA/mL.

In the case of `COc1ccc2c(c1)c(CC(=O)O)c(C)n2C(=O)c1ccc(Cl)cc1` [Control 4, Indomethacin], the AUC ([6]; 0 min) is reported as 0 µg·min/mL, the “Drug 4 Concentration” value ([6]; 0 min) is reported as 0 μgA/mL and the AUC ([6]; 4 min) is reported as 630 µg·min/mL. The “Drug 4 Concentration” value ([6]; 4 min) was 320 μgA/mL, the AUC ([6]; 10 min) was 2,600 min * μg/mL and the “Drug 4 Concentration” value ([6]; 10 min) was 340 μgA/mL. The AUC ([6]; 20 min) was 7,300 min * μg/mL, the “Drug 4 Concentration” value ([6]; 20 min) was 610 μgA/mL and the AUC ([6]; 40 min) was 8,100 min * μg/mL. The “Drug 4 Concentration” value ([6]; 40 min) was 460 μgA/mL, the AUC ([6]; 90 min) was 41,700 min * μg/mL and the “Drug 4 Concentration” value ([6]; 90 min) was 480 μgA/mL. For the same molecule, the AUC ([6]; 1200 min) was 527,700 min * μg/mL, the “Drug 4 Concentration” value ([6]; 1200 min) was 400 μgA/mL and the AUC90 ([6]; Drug 4) was 41,700 min * μg/mL.

In the case of `O=C1Cc2cc(CCN3CCN(c4nsc5ccccc45)CC3)c(Cl)cc2N1` [Control 3B], the AUC ([1]; 0 min, 0.5 wt % MFD solution) is reported as 0 µg·min/mL, the “Drug 3 Concentration” value ([1]; 0 min, 0.5 wt % MFD solution) is reported as 0 μgA/mL and the AUC ([1]; 4 min, 0.5 wt % MFD solution) is reported as 0 µg·min/mL. For the same molecule, the “Drug 3 Concentration” value ([1]; 4 min, 0.5 wt % MFD solution) was 2 μgA/mL, the AUC ([1]; 10 min, 0.5 wt % MFD solution) was 0 µg·min/mL and the “Drug 3 Concentration” value ([1]; 10 min, 0.5 wt % MFD solution) was 2 μgA/mL. For the same molecule, the AUC ([1]; 20 min, 0.5 wt % MFD solution) was 0 µg·min/mL, the “Drug 3 Concentration” value ([1]; 20 min, 0.5 wt % MFD solution) was 2 μgA/mL and the AUC ([1]; 40 min, 0.5 wt % MFD solution) was 100 µg·min/mL. For the same molecule, the “Drug 3 Concentration” value ([1]; 40 min, 0.5 wt % MFD solution) was 2 μgA/mL, the AUC ([1]; 90 min, 0.5 wt % MFD solution) was 200 µg·min/mL and the “Drug 3 Concentration” value ([1]; 90 min, 0.5 wt % MFD solution) was 2 μgA/mL. For the same molecule, the AUC [1, 7] was 2,400 min * μg/mL, the “Drug 3 Concentration” value [1, 7] was 2 μgA/mL and the AUC90 ([1]; Drug 3, 0.5% MFD) was 200 µg·min/mL. The C1200 ([1]; Drug 3, 0.5 wt % MFD solution) was 2 μgA/mL.
